Test: Dissolved amount in water (Test Example 1)
Assay type: physicochemical
Conditions: 5 mg sample in 1 mL water, shaken, supernatant measured by HPLC
Experimental: Each of the above-prepared Formulation 1 and the solid dispersions of Formulations 2 to 6 was separately dispersed in water. Sampling from each solution was performed at 15, 30, and 60 minutes after dispersion, and the concentration of ((1S)-1-((((1S)-1-benzyl-2,3-dioxo-3-(cyclopropylamino)propyl)amino) carbonyl)-3-methylbutyl)carbamic acid 5-methoxy-3-oxapentyl ester was measured according to the procedure shown below.
To 5 mg of each of the above-prepared Formulation 1 and the solid dispersions of Formulations 2 to 6, 1 mL of water was added and the mixture was shaken with a shaker (Labindustries Inc., Labquake Shaker L1237). Shaking was stopped when the predetermined sampling time elapsed, and centrifugation at 13000 rpm was immediately performed at 25° C. for 5 minutes with a centrifugal separator (Kendro Lab Products, Sorvall Biofuge Fresco) to give a supernatant. A sample solution was prepared by mixing 0.5 mL of methanol to 0.5 mL of the supernatant and then measured for concentration of ((1S)-1-((((1S)-1-benzyl-2,3-dioxo-3-(cyclopropylamino)propyl)amino)carbonyl)-3-methylbutyl) carbamic acid 5-methoxy-3-oxapentyl ester by HPLC (Shimadzu, 10A-VP system).
Detector: ultraviolet absorptiometer (detection wavelength: 252 nm)
Column: YMC-Pack ODS-A (inside diameter: 4.6 mm, length: 250 mm, particle diameter: 5 μm, YMC)
Column temperature: constant temperature at around 40° C. […]

dissolved amount in water: 0.45 mg/mL
Compound: COCCOCCOC(=O)N[C@@H](CC(C)C)C(=O)N[C@@H](Cc1ccccc1)C(=O)C(=O)NC1CC1 [((1S)-1-((((1S)-1-benzyl-2,3-dioxo-3-(cyclopropylamino)propyl)amino)carbonyl)-3-methylbutyl)carbamic acid 5-methoxy-3-oxapentyl ester]

From patent US8697746B2, “Solid dispersion of alpha-ketoamide derivatives” (Senju Pharmaceutical Co., Ltd., priority 2010, dated 2014)
